How the values were obtained:
[1] = In vitro metabolism assay, human liver microsomes, Assay Conditions B; format: in vitro ADME; details: 10 min, 3 μM, pH 7.4
Method: Test compound is received as 20 mM in DMSO. Compound is diluted to create a 300 μM acetonitrile (ACN) solution containing 1.5% DMSO, which is then used as a 100× stock for incubation with microsomes. Each compound is tested in duplicate separately in each of three species in the Metabolic Stability-Human, Rat, Mouse assay suite or individual species in the Metabolic Stability-Dog or Metabolic Stability-Monkey suites. Compound, NADPH and liver microsome solutions are combined for incubation in three steps: • 1. 450 μL of liver microsome suspension, protein concentration of 1 mg/mL in 100 mM NaPi, pH. 7.4, 6.6 mM MgCl2 buffer, are pre-warmed at 37° C. • 2. 5 μl of 300 μM compound (98.5% CAN, 1.5% DMSO) is added to the same tube. • 3. The reaction is initiated by the addition of 50 μl of pre-warmed 5 mM NADPH solution in 100 mM NaPi, pH 7.4.
Reaction components are mixed well and 150 μL removed to quench/stop solution immediately for the zero-minute time point. Reactions are incubated at 37° C. for 10 minutes and then an additional 150 μL removed from incubation. Aliquots removed are combined with 300 μL ACN which contains 100 μM DMN as a UV standard for detection.
Quenched mixtures are centrifuged at 1500 rpm (˜500×g) in an Allegra X-12 centrifuge, SX4750 rotor (Beckman Coulter Inc., Fullerton, Calif.) for fifteen minutes to pellet denatured microsomes. A volume of 110 μl of supernatant extract, containing the mixture of parent compound and its metabolites, is then transferred to a separate 96-well plate for UV-LC/MS-MS analysis to determine the percent of parent compound that is remaining in the mixture.

Human CCR1 = Human CCR1 (Homo sapiens (Human), UniProt P32246); experiment: Human CCR1 THP-1 binding assay; details: [125I]-MIP-1α competition, THP-1 cells
Method: For radioligand competition studies, a final concentration of 1×10^5 THP-1 monocytic leukemia cells are combined with 100 μg of LS WGA PS beads (Amersham, Cat.#: RPNQ 0260) in 40 μL of assay buffer (RPMI 1640 without phenol red, 50 mM HEPES, 5 mM MgCl2, 1 mM CaCl2, 0.1% BSA). The THP-1 cell/bead mixture was added to each well of a 384-well assay plate (PerkinElmer, Cat. #:6007899) containing test compound in 3-fold serial dilution, with final concentrations ranging from 8 μM to 0.14 nM. A final concentration of 0.1 nM [^125I]-MIP-1α (PerkinElmer, Cat. #NEX298) in 20 μL assay buffer was added to the reaction. Unlabeled MIP-1α was added in excess to some wells to determine non-specific binding. Sealed assay plates were incubated at room temperature for 12 h then analyzed by LEADseeker™.
The competition data of the test compound over a range of concentrations is plotted as percentage inhibition of radioligand specifically bound in the absence of test compound (percent of total signal). After correcting for non-specific binding, IC50 values are determined. The IC50 value is defined as the concentration of test compound needed to reduce [^125I]-MIP-1α specific binding by 50% and is calculated using the four parameter logistic equation to fit the normalized data. The Ki values are determined by application of the Cheng-Prusoff equation to the IC50 values, where Ki=IC50/(1+ligand concentration/Kd). The Kd of [^125I]-MIP-1α in THP-1 cells is 0.1 nM. Each experiment was run in duplicate.

[2] = In vitro metabolism assay, human liver microsomes, Assay Conditions A; format: in vitro ADME; details: 0.5 μM compound, 10 minutes, 37° C.
Method: Test compound is received as a 3.5 mM stock solution in 100 percent DMSO. Compound is diluted to create a 50 μM acetonitrile (ACN) solution containing 1.4% DMSO, which is then used as a 100× stock for incubation with microsomes. Each compound is tested in duplicate separately in each of three species in the Metabolic Stability-Human, Rat, and Mouse assay suite or as individual species in the Metabolic Stability-Dog or Metabolic Stability-Monkey suites. Compound, NADPH and liver microsome solutions are combined for incubation in three steps:
152 μL of liver microsome suspension, protein concentration of 1.1 mg/mL in 100 mM NaPi, pH 7.4, 6.6 mM MgCl2 buffer, is pre-warmed at 37° C.
• 1) 1.7 μL of 50 μM compound (98.6% ACN, 1.4% DMSO) is added to the same tube and pre-incubated at 37° C. for 5 minutes. • 2) The reaction is initiated by the addition of 17 μL of pre-warmed 10 mM NADPH solution in 100 mM NaPi, pH 7.4. • 3) Reaction components are mixed well, and 75 μL are immediately transferred into 150 μl quench/stop solution (zero-time point, T0). Reactions are incubated at 37° C. for 10 minutes and then an additional 75 μL aliquot is transferred into 150 μL quench solution. Acetonitrile containing 100 μM DMN (a UV standard for injection quality control), is used as the quench solution to terminate metabolic reactions. • 4) Quenched mixtures are centrifuged at 1500 rpm (˜500×g) in an Allegra X-12 centrifuge, SX4750 rotor (Beckman Coulter Inc., Fullerton, Calif.) for fifteen minutes to pellet denatured microsomes. A volume of 90 μL of supernatant extract, containing the mixture of parent compound and its metabolites, is then transferred to a separate 96-well plate for UV-LC/MS-MS analysis to determine the percent of parent compound that is remaining in the mixture. • 5)

Sequence of Human CCR1 (P32246 whole entry): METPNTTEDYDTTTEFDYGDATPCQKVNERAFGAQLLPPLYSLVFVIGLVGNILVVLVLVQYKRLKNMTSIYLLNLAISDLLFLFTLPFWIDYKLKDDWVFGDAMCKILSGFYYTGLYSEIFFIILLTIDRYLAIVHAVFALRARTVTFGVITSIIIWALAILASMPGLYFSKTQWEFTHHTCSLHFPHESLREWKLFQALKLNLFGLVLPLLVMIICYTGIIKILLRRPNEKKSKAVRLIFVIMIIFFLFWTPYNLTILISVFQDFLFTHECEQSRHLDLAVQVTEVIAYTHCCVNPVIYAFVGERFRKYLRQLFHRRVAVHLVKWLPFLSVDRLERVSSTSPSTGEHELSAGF

Row | SMILES | Human Liver Microsomal Metabolism % remaining (Assay Conditions B) [1] | Ki (Human CCR1) | Human Liver Microsomal Metabolism % remaining (Assay Conditions A) [2]
1 | CC(C)CC(=O)N[C@@H](C(=O)N1CC[C@](O)(c2ccc(Cl)cc2)C(C)(C)C1)C(C)C [#466] | 33% | 2.6 nM | 67%
2 | CC(C)[C@@H](NC(=O)C1CCCC1)C(=O)N1CC[C@](O)(c2ccc(Cl)cc2)C(C)(C)C1 [#460] | 16% | 0.7 nM | 47%
3 | CC(C)[C@@H](NC(=O)CC(C)(C)O)C(=O)N1CC[C@](O)(c2ccc(Cl)cc2)C(C)(C)C1 [#1356] | 100% (A)/100% (B) | 3.7 nM | 100% (A)/100% (B)
4 | CC(C)[C@@H](NC(=O)NCC(C)(C)O)C(=O)N1CC[C@](O)(c2ccc(Cl)cc2)C(C)(C)C1 [Compound I] | 100% (B) | 0.7 nM | 
